The record followed here is US6437128B1, “Cribrostatins 3-5” (Arizona Board of Regents, priority 2001, dated 2002).

Structures are written as SMILES.

Holding throughout (test): Antimicrobial disk diffusion
Common to all, as to type: cell-based
(In agar diffusion tests the substance spreads into inoculated agar from a disc or well.)

Assay [1] deals with Streptococcus pneumoniae (ATCC 6303).
The subject of assay [2] is Neisseria gonorrhoeae (ATCC 49226).
Assay [3] has as its system Micrococcus luteus (Presque Isle 456).
Assay [4] relates to Enterobacter cloacae (ATCC 13047).
For assay [5], the system named is Invasive S. pneumoniae (clinical isolate).
The subject of assay [6] is Escherichia coli (ATCC 25922).
Assay [7] has as its system Group A Streptococcus (clinical isolate).
Assay [8] relates to Staphylococcus aureus (ATCC 29213).
Assay [9] has as its system Penicillin-resistant N. gonorrhoeae (clinical isolate).
Assay [10] has as its system Cryptococcus neoformans (ATCC 90112).
Assay [11] deals with Candida albicans (ATCC 90028).
Assay [12] concerns Enterococcus faecalis (ATCC 29212).
The subject of assay [13] is Bacillus subtilis (Presque Isle 620).
In assay [14] the test system is Penicillin-resistant S. pneumoniae (clinical isolate).
Assay [15] concerns Stenotrophomonas maltophilia (ATCC 13637).

On to `CCOC1=C(C)C(=O)c2cc(=O)n(C)cc2C1=O` [Cribrostatin 2, cribrostatin 2, reference compound], for which the Minimum inhibitory concentration in assay [1] is 12.3-25 μg/disk; in assay [2] it was 0.39-0.78 μg/disk; in assay [3], 50-100 μg/disk; in [4], “* (No inhibition at 100 μg/disk)”; in assay [5] it was 50-100 μg/disk; in assay [6] it was “* (No inhibition at 100 μg/disk)”. Further, the Minimum inhibitory concentration entry is on record as “* (No inhibition at 100 μg/disk)” in assay [7]; 12.5-25 μg/disk in [8]; 0.39-0.78 μg/disk in assay [9]; 12.5-25 μg/disk in assay [10]; 3.12-6.25 μg/disk in [11]; “* (No inhibition at 100 μg/disk)” in [12]. Also, the Minimum inhibitory concentration in [13] was 25-50 μg/disk; in assay [14] it was 25-50 μg/disk; in assay [15] it was “* (No inhibition at 100 μg/disk)”.
